From the NIST ThermoML archive (doi:10.1016/j.jct.2009.10.007)

Columns and labels:
[1] = mn = molality of the nth substance listed, in mol/kg; settings: 101 kPa, Liquid; for speed of sound: Sing-around technique in a fixed-path interferometer; for mass density: Vibrating tube method
[2] = refractive index (Na D-line) (dimensionless); mn = molality of the nth substance listed, in mol/kg; settings: 308.15 K, 101 kPa, Liquid, Standard Abbe refractometry

CCCCn1cc[n+](C)c1.[Br-] [1-butyl-3-methylimidazolium bromide] + O
[1]
Settings | mass density, 288.15 K [kg/m3] | mass density, 293.15 K [kg/m3] | mass density, 298.15 K [kg/m3] | mass density, 303.15 K [kg/m3] | mass density, 308.15 K [kg/m3] | speed of sound, 288.15 K [m/s] | speed of sound, 293.15 K [m/s] | speed of sound, 298.15 K [m/s] | speed of sound, 303.15 K [m/s] | speed of sound, 308.15 K [m/s]
m1 = 0.0183 | 1000.03 | 999.121 | 997.948 | 996.538 | 994.913 | 1468.7 | 1484.7 | 1498.8 | 1511 | 1521.5
m1 = 0.0274 | 1000.49 | 999.575 | 998.397 | 996.983 | 995.351 | 1469.8 | 1485.7 | 1499.6 | 1511.8 | 1522.2
m1 = 0.0367 | 1000.96 | 1000.04 | 998.851 | 997.432 | 995.796 | 1471 | 1486.7 | 1500.5 | 1512.6 | 1523
m1 = 0.0459 | 1001.42 | 1000.49 | 999.303 | 997.878 | 996.238 | 1472 | 1487.7 | 1501.5 | 1513.4 | 1523.7
m1 = 0.0692 | 1002.59 | 1001.64 | 1000.44 | 999.002 | 997.347 | 1474.8 | 1490.2 | 1503.7 | 1515.5 | 1525.6
m1 = 0.0932 | 1003.78 | 1002.82 | 1001.6 | 1000.15 | 998.48 | 1477.3 | 1492.5 | 1505.9 | 1517.5 | 1527.4
m1 = 0.1164 | 1004.92 | 1003.94 | 1002.71 | 1001.24 | 999.565 | 1480 | 1495 | 1508.1 | 1519.5 | 1529.3
m1 = 0.141 | 1006.13 | 1005.13 | 1003.88 | 1002.4 | 1000.71 | 1483 | 1497.6 | 1510.5 | 1521.7 | 1531.2
m1 = 0.1652 | 1007.3 | 1006.29 | 1005.02 | 1003.53 | 1001.83 | 1485.6 | 1500.1 | 1512.7 | 1523.7 | 1533.1
m1 = 0.1863 | 1008.32 | 1007.29 | 1006.01 | 1004.51 | 1002.79 | 1488 | 1502.2 | 1514.7 | 1525.5 | 1534.7
m1 = 0.2114 | 1009.53 | 1008.48 | 1007.19 | 1005.67 | 1003.94 | 1490.8 | 1504.8 | 1517 | 1527.6 | 1536.6
m1 = 0.2376 | 1010.77 | 1009.71 | 1008.4 | 1006.87 | 1005.13 | 1493.6 | 1507.3 | 1519.3 | 1529.7 | 1538.5
m1 = 0.2632 | 1011.99 | 1010.91 | 1009.58 | 1008.03 | 1006.28 | 1496.4 | 1509.8 | 1521.7 | 1531.8 | 1540.4
m1 = 0.2831 | 1012.92 | 1011.83 | 1010.49 | 1008.93 | 1007.17 | 1498.5 | 1511.8 | 1523.4 | 1533.4 | 1541.8

[2]
Settings | refractive index
m1 = 0.0096 | 1.3326
m1 = 0.02 | 1.3343
m1 = 0.0298 | 1.3358
m1 = 0.0348 | 1.3366
m1 = 0.0398 | 1.3375
m1 = 0.05 | 1.339
m1 = 0.0548 | 1.3397
m1 = 0.0598 | 1.3405
m1 = 0.0689 | 1.3419
m1 = 0.082 | 1.3439
m1 = 0.0854 | 1.3444
m1 = 0.0896 | 1.3451
m1 = 0.1 | 1.3466
m1 = 0.1192 | 1.3497
